In brackets after ≈: the same amount, converted by molar mass.

The test system of series [1] is Hep3B. The experiment in a line: MTS assay, Hep3B cell growth. Conditions: Homo sapiens, 48 hours of incubation. Format: cell-based. The source says: (§1) An acute myelogenous leukaemia (AML) cell line (KG1a) and a hepatocellular carcinoma (HCC) cell line (Hep3B) may be obtained from American Type of Culture Collection (ATCC). The AML cell line may be maintained in RPMI 1640 (JRH Biosciences) supplemented with 10% of heat inactivated fetal bovine serum (Hyclone), together with antibiotics including penicillin and streptomycin. The Hep3B HCC cell line may be maintained in DMEM with 10% of heat inactivated fetal bovine serum (Hyclone), together with antibiotics including penicillin and streptomycin. Cells may be allowed to grow in a humidified cell culture incubator kept at 5% carbon dioxide.
(§2) The effect of the synthesized cantharimides on the growth of the cell lines described above was investigated in vitro using a standard MTS ([3-(4,5-dimethylthiazol-2-yl)-5-(3-carboxymethoxyphen-yl)-2-(4-sulfophenyl)-2H-tetrazolium]) assay. Changes in the cellular viability of cell that include Hep3B and SKHep-1 with cantharidin analogues were monitored using the MTS activity assay. In particular, 1×10^4 hepatoma carcinoma cells (SK-Hep-1) were seeded at day 0. For the MTS assay, the medium was changed after 24 hours, and various compounds were then added at different concentrations. For bone marrow cells, compounds were added at the same day as the seeding. After 48 hours of incubation, the medium was removed, and MTS/PMS solution was added. The added medium was incubated for exactly 30 minutes. Subsequently, optical absorbance was determined at 490 nm using an optical absorbance detector (available from Promega).
More than 30 cantharimides were screened for their effects on cell proliferation and potential cytotoxicity in the two cell lines of Hep3B and SKHep-1. The activities of cantharimide were monitored in the presence of dicantharidic (a commercially available cantharidin-mimic) as a reference control.

A short description of series [2]: Solubility. Format: physicochemical.
Series [3] relates to KG1a AML cell line. The experiment in a line: Morphology assay, KG1a AML cell line. Format: cell-based. Also on record: dose or concentration left out as unconfirmed. Conditions: 48 hours incubation.
Text: as §1
(§3) The morphological effect of cytotoxic action of cantharidic acid and cantharimide on leukemia cells are depicted in FIGS. 1A to 1F. The untreated non-malignant haematological disorder bone marrow and KG1a AML cell lines are depicted in FIGS. 1A and 1D, respectively. The non-malignant haematological disorder bone marrow and KG1a AML cell lines treated with 5 µg/mL of dicantharidic acid are depicted in FIGS. 1B and 1E, respectively. The non-malignant haematological disorder bone marrow and KG1a AML cell lines treated with 5 µg/mL of cantharimide are depicted in FIGS. 1C and 1F, respectively.

Series [4] deals with non-malignant haematological disorder bone marrow cells. Put plainly: MTS assay, primary culture of bone marrow cells. Format: cell-based, human. On the set-up: toxicity to bone marrow cells: dose or concentration left out as unconfirmed.
Text: (§4) Non-malignant hematological disorder bone marrow cells may be collected by a bone marrow aspirate method from consented patients from clinical wards of Prince of Wales Hospital (Hong Kong, China), according to the regulation of the Hospital. Immediately after collection, mononuclear cells may be enriched by Ficoll Plaque (available from General Electricity) gradient centrifugation. Cells may be washed twice by phosphate buffered saline and resuspended in complete medium. Viable cell percentage may then be estimated by trypan blue exclusion assay and counted using a haemacytometer.
as §2, with “After 48 hours of incubation, the medium was removed, and MTS/PMS solution was added. The added medium was incubated for exactly 30 minutes.” left out
Background: Tetrazolium assays rely on reduction of a dye to a coloured formazan, in cell work by metabolically active cells.

In series [5] the test system is leukemia cell line KG1a. The experiment in a line: MTS assay, leukemia cell line KG1a. Format: cell-based. Conditions: for IC50: Homo sapiens, KG-1a, concentration necessary for 50% of MTS reduction ability vs control, read-out: MTS50 activity.
Text: as §1, §2
The cytotoxic activity of cantharimide of formula (3) using a leukemia cell line KG1a was investigated by means of a MTS assay. The MTS50 activity was measured as the concentration necessary for 50% of MTS reduction ability by the chemical treated cell as compared with the control. […] On the other hand, cantharimide gave a value of about 5 µg/ml for MTS50 activity against the same cancer cell line.

The subject of series [6] is non-malignant haematological disorder bone marrow. The experiment in a line: Morphology assay, bone marrow. Conditions: 48 hours incubation. Format: cell-based, human.
Text: as §4
The toxicity on non-malignant haematological bone marrow sample was tested to evaluate the side effects of cantharidin, which included bone marrow suppression, and gastrointestinal and urinary tract toxicity.
as §3

On to `Cc1ccc2nc(N3C(=O)[C@@]4(C)[C@@H]5CC[C@@H](O5)[C@@]4(C)C3=O)sc2c1` [Entry 2], for which, in series [1], the IC50 was about 20 µg/mL (≈ 58.4 µM). In addition, the Solubility in water result in series [2] is listed as “Poor”.
The molecule `C[C@@]12C(=O)N(c3nc4ccc(C(F)(F)F)cc4s3)C(=O)[C@]1(C)[C@H]1CC[C@@H]2O1` [Entry 5] showed an IC50 in series [1] of about 5 µg/mL (≈ 12.6 µM). Further, the Solubility in water result in series [2] is “Fair”.
The molecule `C[C@]1(C(=O)O)[C@@H]2CC[C@@H](O2)[C@@]1(C)C(=O)O` [Entry 11, reference compound] gave an IC50 in series [1] of about 0.25 µg/mL (≈ 1.17 µM). Besides, in series [2], the Solubility in water entry is “Excellent”.
For the molecule `C[C@@]12C(=O)N(c3nc4ccccc4s3)C(=O)[C@]1(C)[C@H]1CC[C@@H]2O1` [Entry 1], the IC50 in series [1] was about 6 µg/mL (≈ 18.3 µM). For the same molecule, the Solubility in water result in series [2] is given as “Poor”.
Turning to `CCCCOC(=O)c1ccc2nc(N3C(=O)[C@@]4(C)[C@@H]5CC[C@@H](O5)[C@@]4(C)C3=O)sc2c1` [Entry 9], the Solubility in water entry in series [2] was “Good”.
Turning to `C[C@@]12C(=O)N(c3nc4ccc(OC(F)(F)F)cc4s3)C(=O)[C@]1(C)[C@H]1CC[C@@H]2O1` [Entry 4], in series [1], the IC50 is about 10 µg/mL (≈ 24.2 µM). The Solubility in water entry in series [2] is on record as “Fair”.
For the molecule `COC(=O)c1ccc2nc(N3C(=O)[C@@]4(C)[C@@H]5CC[C@@H](O5)[C@@]4(C)C3=O)sc2c1` [Entry 8], the Solubility in water result in series [2] is “Good”.
For `CC1(C(=O)O)C2CCC(O2)C1(C)C(=O)O` (stereo not shown) [dicantharidic acid, reference compound], the “morphological effect on leukemia cells” value in series [3] was “induced loss of colony formation potential and cell shrinkage”. In series [4] (concentration down to 0.15625, 48 hours of incubation), the “toxicity to bone marrow cells” value is recorded as “extremely toxic”. Moreover, the IC50 in series [5] is about 0.5 µg/mL (≈ 2.33 µM). Moreover, the “activity to the cancer cell line compared to cantharimide” value in series [5] (MTS50) is 10 fold. For the same molecule, the “morphological effect on bone marrow cells” value in series [6] is recorded as “induced a similar loss”.
`COc1ccc2nc(N3C(=O)[C@@]4(C)[C@@H]5CC[C@@H](O5)[C@@]4(C)C3=O)sc2c1` [Entry 3] displayed an IC50 in series [1] of about 5 µg/mL (≈ 14 µM). The Solubility in water result in series [2] is on record as “Poor”.
The solubility is the dissolved amount per volume that the medium holds. As for `C[C@@]12C(=O)N(c3nc4ccc(C(=O)O)cc4s3)C(=O)[C@]1(C)[C@H]1CC[C@@H]2O1` [Entry 7], the “morphological effect on leukemia cells” value in series [3] is “induced loss of colony formation potential and cell shrinkage”. Moreover, the “cytotoxic activity to normal bone marrow cells” value in series [4] is listed as “lack of cytotoxic activity”. The IC50 in series [1] and in series [5] was about 5 µg/mL (≈ 13.4 µM) throughout. In addition, in series [2] (DMSO, organic solvent or mixture), the solubility is 250 mg/mL (≈ 671000 µM). Besides, the Solubility in water entry in series [2] is “Good”. In addition, in series [6], the “morphological effect on bone marrow cells” value is “colony formation remained unchanged”.
In series [1], `C[C@@]12C(=O)N(c3nc4ccc(F)cc4s3)C(=O)[C@]1(C)[C@H]1CC[C@@H]2O1` [Entry 6] showed an IC50 of about 5 µg/mL (≈ 14.4 µM). Also, the Solubility in water result in series [2] was “Poor”.

For the origin of these results see US8344007B2, “Water-soluble polymer-based cantharimides as potentially selective anti-tumor agents” (priority 2009, dated 2013).
